Measured values taken from US9403806B1, “Cognition enhancing compounds and compositions, methods of making, and methods of treating” (NeuroSolis, Inc., priority 2010, dated 2016).

Columns and labels:
Format in all cases: cell-based
[1] = biological target: T1, human muscarinic M1 receptors (Homo sapiens, UniProt P11229); experiment: IP production in A9L cells with human M1 receptors (IPOne TR-FRET), Example 28; settings: for huM1/A9L Smax: percentage of maximal stimulation by carbachol; for huM1/A9L ED50 relative to CCh*: potency relative to carbachol at its EC50, semi-quantitative; for potency and efficacy at M1 muscarinic receptors (in words): huM1/A9L
T1 construct: host or cells: A9L cells
T1 sequence (P11229 1-460): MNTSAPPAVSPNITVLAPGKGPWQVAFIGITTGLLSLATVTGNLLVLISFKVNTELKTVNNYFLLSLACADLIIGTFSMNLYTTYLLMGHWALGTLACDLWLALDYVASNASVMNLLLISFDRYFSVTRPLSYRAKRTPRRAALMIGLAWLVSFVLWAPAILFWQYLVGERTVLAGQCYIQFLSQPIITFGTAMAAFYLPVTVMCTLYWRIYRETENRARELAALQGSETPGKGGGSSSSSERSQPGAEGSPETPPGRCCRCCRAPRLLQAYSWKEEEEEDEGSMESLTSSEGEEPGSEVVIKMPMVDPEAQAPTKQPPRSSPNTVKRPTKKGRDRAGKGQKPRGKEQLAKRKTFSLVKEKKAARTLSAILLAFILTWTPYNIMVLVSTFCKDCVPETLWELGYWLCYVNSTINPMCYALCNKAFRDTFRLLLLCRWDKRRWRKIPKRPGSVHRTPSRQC
Description: (§1) Muscarinic M1 and M3 agonist activity was evaluated by measuring the stimulation of inositol phosphate (IP) production in the presence of lithium chloride from A9L cells transfected with expression plasmids containing human muscarinic M1 and M3 receptors, respectively. The cell lines were a gift from Professor W Messer, and the methods were as described in Tejada F R et al. J. Med. Chem. 2006; 49: 7518-31 except that the assay was scaled down to run in 384 well plates, and IP was measured in the cell lysates using the non-isotopic IPOne TR-FRET assay (CIS-BIO, Inc).
(§2) Cells were grown to 90% confluence in 384 well hi-base plates (Greiner Bio-One), compounds were added at suitable concentrations in growth medium containing 10 mM LiCl, buffered with an extra 10 mM HEPES (pH7.4), and incubated for 60 minutes at 37° C. Cells were lysed and assayed for IP following the manufacturer's instructions.
(§3) The value for a full agonist is 100%, while partial agonists give values below 100%.

[2] = biological target: T2, human muscarinic M3 receptors (Homo sapiens, UniProt P20309); experiment: IP production in A9L cells with human M3 receptors (IPOne TR-FRET), Example 28; settings: for huM3/A9L Smax: percentage of maximal stimulation by carbachol; for huM3/A9L ED50 relative to CCh*: potency relative to carbachol at its EC50, semi-quantitative
T2 construct: host or cells: A9L cells
T2 sequence (P20309 whole entry): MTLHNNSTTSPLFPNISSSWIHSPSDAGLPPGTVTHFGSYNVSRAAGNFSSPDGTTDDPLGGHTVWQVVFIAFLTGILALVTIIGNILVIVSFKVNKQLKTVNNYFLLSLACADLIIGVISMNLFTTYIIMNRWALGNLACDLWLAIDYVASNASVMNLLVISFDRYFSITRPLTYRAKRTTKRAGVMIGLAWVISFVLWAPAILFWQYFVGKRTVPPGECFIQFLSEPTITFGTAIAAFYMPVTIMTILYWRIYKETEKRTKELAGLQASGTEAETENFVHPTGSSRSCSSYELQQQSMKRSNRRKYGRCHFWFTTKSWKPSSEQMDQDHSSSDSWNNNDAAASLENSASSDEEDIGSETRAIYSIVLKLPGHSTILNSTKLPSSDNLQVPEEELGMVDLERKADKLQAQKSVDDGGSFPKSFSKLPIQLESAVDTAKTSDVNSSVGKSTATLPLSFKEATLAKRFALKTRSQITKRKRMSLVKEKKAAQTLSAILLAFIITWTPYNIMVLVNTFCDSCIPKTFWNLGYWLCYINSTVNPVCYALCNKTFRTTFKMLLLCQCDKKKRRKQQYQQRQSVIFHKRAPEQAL
Description: as §1, §2, §3

[3] = biological target: T1, human muscarinic M1 receptors; settings: relative to the potency of carbachol at its EC50
Description: (§4) Muscarinic M1 and M3 agonist activity was evaluated by measuring the stimulation of inositol phosphate (IP) production in the presence of lithium chloride from A9L cells transfected with expression plasmids containing human muscarinic M1 and M3 receptors, respectively. The cell lines were a gift from Professor William Messer, and the methods were as described in Tejada et al. (J. Med. Chem. 2006; 49: 7518-31) except that the assay was scaled down to run in 384-well plates and the concentration of inositol-1-phosphate in the lysates was determined using the non-isotopic IP-One Terbium TR-FRET assay kit (Cisbio Bioassays, cat. #62IPAPEJ) according to the manufacturer's instructions.
as §2, with “384-well high-base, small-volume” for “384 well hi-base”, “(pH=7.4),” for “(pH7.4),”
as §3

[4] = biological target: T2, human muscarinic M3 receptors; settings: relative to the potency of carbachol at its EC50
Description: as §4
as §2, with “384-well high-base, small-volume” for “384 well hi-base”, “(pH=7.4),” for “(pH7.4),”
as §3

Row | Compound | huM1/A9L Smax [1] [%] | huM1/A9L ED50 relative to CCh* [1] | huM3/A9L Smax [2] [%] | huM3/A9L ED50 relative to CCh* [2] | potency and efficacy at M1 muscarinic receptors (in words) [1] | huM1/A9L Potency relative to carbachol [3] | huM3/A9L Potency relative to carbachol [4]
1 | Cc1noc(C2CCC(C)NC2)n1 (stereo not drawn) [Compound 18, 3-Methyl-5-(6-methylpiperidin-3-yl)-1,2,4-oxadiazole] | 14 | inactive | 18 | inactive | – | – | –
2 | Cc1noc([C@H]2CCCN[C@@H]2C)n1 [Compound 25] | 3 | inactive | 20 | inactive | – | – | –
3 | Nc1noc(C2CCCNC2)n1 (stereo not drawn) [Compound 27, 3-Amino-5-(piperidin-3-yl)-1,2,4-oxadiazole] | 97 | + (+ potency 2-10x CCh) | 20 | +/− (+/− potency 0.5-2x CCh) | – | – | –
4 | c1nsc(C2CCCNC2)n1 (stereo not drawn) [Compound 12b, 5-(piperidin-3-yl)-1,2,4-thiadiazol] | 100 | − (− potency <0.5-0.1x CCh) | 60 | −− (−− potency <0.1x CCh) | – | – | –
5 | Cc1noc(C2CCNC2)n1 (stereo not drawn) [Compound 31, 3-methyl-5-(pyrrolidin-3-yl)-1,2,4-oxadiazole] | 113 | + (+ potency 2-10x CCh) | 60 | − (− potency <0.5-0.1x CCh) | – | – | –
6 | Cc1noc([C@@H]2CCCN[C@@H]2C)n1 [Compound 24] | 41 | −− (−− potency <0.1x CCh) | 32 | inactive | – | – | –
7 | Cc1noc(C2CCCN(C)C2)n1 (stereo not drawn) [Compound 5, 3-Methyl-5-(1-methylpiperidin-3-yl)-1,2,4-oxadiazole] | 20 | inactive | 20 | inactive | essentially inactive | – | –
8 | Cc1noc([C@@H]2CNC[C@@H](C)C2)n1 [Compound 21] | 18 | inactive | 14 | inactive | – | – | –
9 | Cc1noc([C@H]2CNCC[C@H]2C)n1 [Compound 22] | 7 | inactive | 15 | inactive | – | – | –
10 | Cc1noc([C@H]2CNC[C@@H](C)C2)n1 [Compound 20] | 9 | inactive | 20 | inactive | – | – | –
11 | Cc1nsc(C2CCCNC2)n1.Cl (stereo not drawn) [Compound 12a, 3-methyl-5-(piperidin-3-yl)-1,2,4-thiadiazole hydrochloride] | 101 | + (+ potency 2-10x CCh) | 58 | + (+ potency 2-10x CCh) | – | – | –
12 | Cc1noc(C23CNCC2C3)n1 (racemic) [Compound 121, 5-(4,4-d2-3-Azabicyclo[3.1.0]hexan-1-yl)-3-methyl-1,2,4-oxadiazole] | – | – | – | – | – | 1.10 | 0.45
13 | Cc1noc([C@H]2CC[C@H](C)NC2)n1 [Compound 19] | 15 | inactive | 34 | inactive | – | – | –
14 | Cc1noc([C@@H]2CNCC[C@H]2C)n1 [Compound 23] | 23 | inactive | 19 | inactive | – | – | –
15 | CCc1noc(C2CCCNC2)n1 (stereo not drawn) [Compound 38, 3-ethyl-5-(piperidin-3-yl)-1,2,4-oxadiazo1e] | 15 | inactive | <14 | inactive | essentially inactive | – | –
